Target: T1, Regulator of G-protein signaling 16 (Homo sapiens, UniProt O15492)
T1 sequence (O15492 whole entry): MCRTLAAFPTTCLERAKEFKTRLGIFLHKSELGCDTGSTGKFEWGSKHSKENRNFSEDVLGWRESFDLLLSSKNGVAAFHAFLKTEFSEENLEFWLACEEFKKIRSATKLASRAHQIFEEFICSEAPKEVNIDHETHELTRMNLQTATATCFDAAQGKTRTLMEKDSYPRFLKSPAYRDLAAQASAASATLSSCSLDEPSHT
Test: RGS16-Galphao binding modulators, SAR follow-up, biochemical, multiplexed bead flow cytometry, SAR compounds (AID 2298)

Structure (SMILES): NS(=O)(=O)c1ccc(N=NCc2ccc(O)c(O)c2O)c([N+](=O)[O-])c1 [4-[[(E)-(2,3-dihydroxy-4-oxo-1-cyclohexa-2,5-dienylidene)methyl]hydrazo]-3-nitrobenzenesulfonamide]
- EC50: 29 nM

Structure (SMILES): Cc1cccc(N2CCN(C(=O)COc3noc4nc(C)cc(C)c34)CC2C)c1 (configuration not stated) [2-[(4,6-dimethyl-[1,2]oxazolo[5,4-b]pyridin-3-yl)oxy]-1-[3-methyl-4-(3-methylphenyl)piperazin-1-yl]ethanone]
- EC50: > 30000 nM

Structure (SMILES): Cc1cc(Cl)ccc1/N=c1/ssnc1Cl [MLS000539990]
- EC50: 53 nM

Structure (SMILES): O=c1c2ccccc2sn1-c1ccc(S(=O)(=O)N2CCCC2)cc1 [2-(4-pyrrolidin-1-ylsulfonylphenyl)-1,2-benzothiazol-3-one]
- EC50: 27 nM

Structure (SMILES): CCN=c1scc(C)n1N=Cc1ccc(O)c(O)c1O
- EC50: 1050 nM

Structure (SMILES): Cc1cccc(N2CCN(C(=O)CN3CCc4nc(C)cc(C)c4C3=O)CC2C)c1 (configuration not stated) [KUC103675N]
- EC50: > 30000 nM

Structure (SMILES): CN1CCN(C2=C(Cl)C(=O)C(c3cnc(N4CCCCC4)s3)=C(Cl)C2=O)CC1
- EC50: 27 nM

Structure (SMILES): Cc1[nH]n(-c2ccccc2)c(=S)c1/C=N/c1cccc([N+](=O)[O-])c1 [(4E)-5-methyl-4-[(3-nitroanilino)methylene]-2-phenyl-2-pyrazoline-3-thione]
- EC50: 46 nM

Structure (SMILES): Cc1cccc(N2CCN(C(=O)Cn3sc4nc(C)cc(C)c4c3=O)CC2C)c1 (configuration not stated) [2-[2-keto-2-[3-methyl-4-(m-tolyl)piperazino]ethyl]-4,6-dimethyl-isothiazolo[5,4-b]pyridin-3-one]
- EC50: 110 nM

Structure (SMILES): O=c1c2ccccc2sn1-c1ccccc1 [2-phenyl-1,2-benzothiazol-3-one]
- EC50: > 30000 nM

Structure (SMILES): Cc1cccc(N2CCN(C(=O)COc3nsc4nc(C)cc(C)c34)CC2C)c1 (configuration not stated)
- EC50: 1430 nM

Structure (SMILES): O=C(Cc1csc(N2CCOCC2)n1)NN=Cc1ccc(O)c(O)c1O [SMR000369439]
- EC50: 822 nM

Structure (SMILES): CCOc1ccccc1-c1c2cc(O)c(=O)cc-2oc2cc(O)c(O)cc12 [MLS000578271]
- EC50 (inactive by the depositor's call): 3680 nM

Structure (SMILES): Cc1cc(C)c2c(n1)CCN(CC(=O)N1CCN(c3ccccc3)CC1)C2=O [2,4-dimethyl-6-[2-oxidanylidene-2-(4-phenylpiperazin-1-yl)ethyl]-7,8-dihydro-1,6-naphthyridin-5-one]
- EC50: > 30000 nM

Structure (SMILES): O=C(COc1ccccc1C(=O)NN=Cc1ccc(O)c(O)c1)NN=Cc1ccc(O)c(O)c1 [N''-[(Z)-(3-hydroxy-4-oxo-1-cyclohexa-2,5-dienylidene)methyl]-2-[2-[[(Z)-(3-hydroxy-4-oxo-1-cyclohexa-2,5-dienylidene)methyl]hydrazo]-2-oxoethoxy]benzohydrazide]
- EC50: 116 nM

Structure (SMILES): Cc1cc(C)c2c(=O)n(CC(=O)N3CCN(c4ccccc4)CC3)ccc2n1 [2,4-dimethyl-6-[2-oxidanylidene-2-(4-phenylpiperazin-1-yl)ethyl]-1,6-naphthyridin-5-one]
- EC50: 18 nM

Structure (SMILES): Cc1[nH]n(-c2ccccc2)c(=S)c1C=NCCCN=Cc1c(C)[nH]n(-c2ccccc2)c1=S
- EC50: 405 nM

Structure (SMILES): COc1ccc(C2=CC(=O)C=CC2=O)cc1 [MLS001029846]
- EC50: 151 nM

Structure (SMILES): CCN(CC)S(=O)(=O)c1cccc(-c2n[nH]c(=S)n2N=Cc2ccc(C(=O)OC)cc2)c1 [4-[(E)-[3-[3-(diethylsulfamoyl)phenyl]-5-thioxo-1H-1,2,4-triazol-4-yl]iminomethyl]benzoic acid methyl ester]
- EC50: 940 nM

Structure (SMILES): CN=c1scc(C)n1N=Cc1ccc(O)c(O)c1O [(4E)-2,3-dihydroxy-4-[[(4-methyl-2-methylimino-1,3-thiazol-3-yl)amino]methylidene]cyclohexa-2,5-dien-1-one]
- EC50: 511 nM

Structure (SMILES): CC(=O)OCCCNc1cc(Sc2nc3ccccc3s2)c2nonc2c1[N+](=O)[O-] [MLS000521052]
- EC50: 272 nM

Structure (SMILES): CCC(=O)NC(c1ccc(C)cc1)c1cc([N+](=O)[O-])c2cccnc2c1O (configuration not stated) [MLS000553854]
- EC50: 5220 nM

Structure (SMILES): O=C1C(Cl)=C(N2CCCCC2)C(=O)C(Cl)=C1c1cnc(N2CCCCC2)s1 [MLS000550549]
- EC50: 121 nM

Structure (SMILES): CCN(CC)S(=O)(=O)c1cccc(C(=O)NN=Cc2ccc(O)c(O)c2O)c1
- EC50: 590 nM

Structure (SMILES): CC1(C)OC(=O)C(=Cc2ccc(-c3ccc(S(N)(=O)=O)cc3)o2)C(=O)O1 [SMR000273939]
- EC50: 3510 nM

Structure (SMILES): Cc1cccc(N2CCN(C(=O)Cn3ccc4nc(C)cc(C)c4c3=O)CC2C)c1 (configuration not stated) [2,4-dimethyl-6-[2-[3-methyl-4-(3-methylphenyl)piperazin-1-yl]-2-oxidanylidene-ethyl]-1,6-naphthyridin-5-one]
- EC50: > 30000 nM

Structure (SMILES): Nc1c(C(=O)NCC2CCCO2)sc2nc3c(c(-c4ccco4)c12)CC/C3=C/c1ccco1 (configuration not stated) [UNM-0000305796]
- EC50: > 30000 nM

Source: BindingDB's records for doi:10.7270/Q2VH5M8G (Nmmlsc, 2010)
